The molecules below were run on HCV replicon (1B Replicon) (assay: HCV replicon assay, inhibition of viral replication (luciferase)). Details: Hepatitis C virus, 72 h; 10 uM compound; human hepatoma Huh-7 HCV replicon cells; 3 days incubation; luminescence; read-out: % inh at 10 uM (1B Replicon).
Type: cell-based
Protocol: The anti-HCV activity of the compounds of this invention was tested in a human hepatoma Huh-7 cell line harboring a HCV replicon. The assay comprised the following steps:
Serial dilution was performed in 100% DMSO in a 384-well plate. A solution containing a compound at 225-fold concentration of the starting final serial dilution concentration was prepared in 100% DMSO and 15 uL added to the pre-specified wells in column 3 or 13 of a polypropylene 384-well plate. The rest of the 384-well plate was filled with 10 uL 100% DMSO except for columns 23 and 24, where 10 uL of 500 uM a HCV protease inhibitor (ITMN-191) in 100% DMSO was added. The HCV protease inhibitor was used a control of 100% inhibition of HCV replication. The plate was then placed on a Biomek FX Workstation to start the serial dilution. The serial dilution was performed for ten cycles of 3-fold dilution from column 3 to 12 or from column 13 to 22.
To each well of a black polypropylene 384-well plate, 90 μL of cell media containing 1600 suspended Huh-7 HCV replicon cells was added with a Biotek uFlow Workstation. A volume of 0.4 μL of the compound solution was transferred from the serial dilution plate to the cell culture plate on a Biomek FX Workstation. The DMSO concentration in the final assay condition was 0.44%. The plates were incubated for 3 days at 37° C. with 5% CO2 and 85% humidity.
b) Assessment of inhibition of viral replication: The calcein-PBS solution in the 384-well cell culture plate was aspirated with a Biotek EL405 plate-washer. A volume of 20 μL of Dual-Glo luciferase buffer (Promega, Dual-Glo Luciferase Assay Reagent, cat. #E298B) was added to each well of the plate with a Biotek uFlow Workstation. The plate was incubated for 10 minutes at room temperature. A volume of 20 μL of a solution containing 1:100 mixture of Dual-Glo Stop & Glo substrate (Promega, Dual-Glo Luciferase Assay Reagent, cat. #E313B) and Dual-Glo Stop & Glo buffer (Promega, Dual-Glo Luciferase Assay Reagent, cat. #E314B) was then added to each well of the plate with a Biotek uFlow Workstation. The plate was incubated at room temperature for 10 minutes before the luminescence signal was measured with a Perkin Elmer Envision Plate Reader.
The percent cytotoxicity was determined by calcein AM conversion to fluorescent product. The average fluorescent signal from the DMSO control wells were defined as 100% nontoxic. The individual fluorescent signal from testing compound treated well was divided by the average signal from DMSO control wells and then multiplied by 100% to get the percent viability. The percent anti-HCV replication activity was determined by the luminescence signal from the testing well compared to DMSO controls wells. The background signal was determined by the average luminescence signal from the HCV protease inhibitor treated wells and was subtracted from the signal from the testing wells as well as the DMSO control wells. Following 3-fold serial dilutions, the EC50 and CC50 values were calculated by fitting % inhibition at each concentration to the following equation: % inhibition=100%/[(EC50/[I])^b+1]
% inhibition values at any specific concentration, for example 10 μM, can also be derived from the formula above.

Structure (SMILES)	inhibition at 10 µM [%]
COc1ccc(-c2nnc(Cn3cnc4c(C#Cc5cncnc5)c(-c5ccccc5F)nc-4c3)s2)c(C(F)(F)F)c1	97.8
Fc1ccccc1-c1cc2ccn(Cc3cc(-c4ccc(C(F)(F)F)cc4C(F)(F)F)no3)nc-2n1	77
Fc1ccccc1-c1cc2ncn(Cc3cc(-c4ccc(C(F)(F)F)cc4C(F)(F)F)no3)cc-2n1	99.6
COc1ccc(-c2nnc(Cn3cnc4c(Br)c(-c5ccccc5F)nc-4c3)s2)c(C(F)(F)F)c1	100
Fc1ccccc1-c1cc2ncn(Cc3nnc(-c4ccc(C(F)(F)F)cc4C(F)(F)F)s3)cc-2n1	100
COc1ccc(-c2nnc(Cn3cnc4c(C#N)c(-c5ccccc5F)nc-4c3)s2)c(C(F)(F)F)c1	99.9
Fc1ccccc1-c1cc2ccn(Cc3ccc(-c4ccc(C(F)(F)F)cc4C(F)(F)F)nn3)nc-2n1	97.4
COc1ccc(-c2nnc(Cn3ccc4cc(-c5ccccc5F)nc-4n3)s2)c(C(F)(F)F)c1	98.1
Fc1ccccc1-c1cc2ncn(Cc3ccc(-c4ccc(C(F)(F)F)cc4C(F)(F)F)nn3)cc-2n1	100
COc1ccc(-c2nnc(Cn3cnc4c(C(N)=O)c(-c5ccccc5F)nc-4c3)s2)c(C(F)(F)F)c1	36.6
COc1ccc(-c2nnc(Cn3cnc4cc(-c5ccccc5F)nc-4c3)s2)c(C(F)(F)F)c1	100
COc1ccc(-c2nnc(Cn3cnc4c(Cl)c(-c5ccccc5F)nc-4c3)s2)c(C(F)(F)F)c1	100

Reference: patent US8815858B2, “Heterocyclic flaviviridae virus inhibitors” (Gilead Sciences, Inc., priority 2010, dated 2014)
